For one data set, the system named is cancer cell lines. The data set is described as follows: Anti-cancer assays, MTT, summary over the cancer cell lines. It counts as cell-based. Conditions: X = preferred.
In data set [1] the test system is Escherichia coli ATCC 25922. The data set is described as follows: Antimicrobial assay I, modified protocol (tryptic soy broth), MBC. As to conditions: minimum bactericidal concentration, Table 4.
For data set [2], the system named is Pseudomonas aeruginosa ATCC 27853. The data set is described as above. Conditions: minimum bactericidal concentration, Table 4.
Data set [3] deals with Stapholococcus aureus ATCC 25923. The description is as above. Conditions: minimum bactericidal concentration, Table 4.
The subject of data set [4] is Candida albicans ATCC 10231. The data set can be described thus: Antimicrobial assay I, modified protocol (tryptic soy broth), MFC. Conditions: minimum fungicidal concentration, Table 4.
Data set [5] is described as follows: in vitro. It counts as cell-based, human. As to conditions: human, human red blood cells.
Data set [6] is described as follows: in vitro. As to conditions: human, WI38 normal lung fibroblast cells.
In data set [7] the test system is Pseudomonas aeruginosa ATCC 9027. The data set can be described thus: Antimicrobial assay I, MIC by OD measurement. It counts as cell-based. As to conditions: 37° C. for 24 hours, absorbance 620 nm.
For data set [8], the system named is Staphylococcus aureus ATCC 6538. The data set can be described thus: Antimicrobial assay I, MIC by OD measurement. It counts as cell-based. Conditions: 37° C. for 24 hours, absorbance 620 nm.
Data set [9] deals with yeast (Saccharomyces cerevisiae). The data set is described as follows: Antimicrobial assay I, yeast assay in RPMI 1640. It counts as cell-based. Conditions: RPMI 1640 media.
In a further data set the test system is BMKC. The data set can be described thus: Anti-cancer assay, MTT, LD50. It counts as cell-based. Conditions: BMKC cloned melanoma line, 24 hours with peptide. The text has this: (§1) Numbers are LD50 values (μg/mL).
The next data set relates to H1299. The data set is described as follows: Anti-cancer assay, MTT, LD50. It counts as cell-based. Conditions: 24 hours with peptide, lung large cell carcinoma.
Excerpt: as §1

A further data set concerns HeLaS3. The data set can be described thus: Anti-cancer assay, MTT, LD50. It counts as cell-based. As to conditions: 24 hours with peptide, cervical carcinoma.
Excerpt: as §1

Another data set has as its system MCF7. The data set is described as follows: Anti-cancer assay, MTT, LD50. It counts as cell-based. As to conditions: MCF7 breast adenocarcinoma line, MTT, 24 hours with peptide.
Excerpt: as §1

For a further data set, the system named is PC3. The data set can be described thus: Anti-cancer assay, MTT, LD50. It counts as cell-based. As to conditions: 24 hours with peptide, prostate adenocarcinoma.
Excerpt: as §1

For the next data set, the system named is SW480. The data set is described as follows: Anti-cancer assay, MTT, LD50. It counts as cell-based. Conditions: SW480 colon adenocarcinoma line, 24 hours with peptide.
Excerpt: as §1

The subject of the next data set is P. aeruginosa H374. It counts as cell-based, Pseudomonas aeruginosa. As to conditions: for FIC Index: 0.5 or less = synergy. The method, boiled down: (§2)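 Efflux-mutant strains were tested with two-fold serial dilutions of chloramphenicol or nalidixic acid, alone and with peptide held at ¼ of its own MIC.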
Another data set deals with P. aeruginosa H774. It counts as cell-based, Pseudomonas aeruginosa. Conditions: P. aeruginosa H744; nalidixic acid + peptide at ¼ MIC; 0.5 or less = synergy. The method, boiled down:
as §2

Another data set relates to P. aeruginosa. It counts as cell-based, Pseudomonas aeruginosa. As to conditions: P. aeruginosa H744; MIC of nalidixic acid with peptide at ¼ MIC. A digest of the protocol:
as §2

The test system of data set [10] is hairless rat skin burn wound. The data set is described as follows: In vivo wound healing, TCA chemically induced skin burn wound. As to conditions: rat model, TCA burn treated by peptide. The source says:
The hairless rat was chosen as a suitable test model. Female hairless rats of 100 to 150 grams weight and 8 to 12 weeks age were used in the study.
As an alternative, 70% trichloroacetic (TCA) dissolved in 70% ethanol was employed to induce the dermal erosion patches. […] As the chemical burn agent, the TCA treatment inflicted on the rats far less trauma and mortality than occurred with the Phenol model.
The experimental Protocol procedure steps were as follows: • 1. The animal was anesthetized (40 mg/kg Phenobarbital). • 2. Color photographs of the animal's back (with six separate peels) were taken before each treatment and daily thereafter. • 3. Rat skin surface was prepared by wiping with 70% ethanol. Filter paper discs (1.1 cm diameter) were soaked in 70% TCA/ethanol. • 4. The discs were placed on the back of the hairless rat for 30 minutes [6 disks providing for 2 control (no peptide treatment) disks and 4 disks for peels to receive peptide treatment.] • 5. After a 30 minute burn the discs were removed. Twenty four hours later, different peptide solutions (1500 ppm in saline) were applied to four peels, and saline was applied to the two control peels. • 6. Peptide solutions (and saline for the controls) were applied to the six wounds with a soft brush each day thereafter. • 7. It took approximately one month for the wounds to heal (complete skin closure with stabilized epidermis), after which the animal was sacrificed. • 8. The treated skin was harvested, section stained with trichrome, and mounted on slides.
The percentage of wound closure for each peel (six sites) was measured each day until the animal was sacrificed. The percentage closure was determined by measuring on the animal photographs the area of the remaining scab relative to the area of the initial scar after the burn. These measurements were made by digitizing and analyzing the peels using the Sigma Plot ProScan 4 program.
This provided a measure of the post-TCA burn treatment of the inflammatory response in each peel site.
The extent of epidermal thickening (hyperkeratosis) at each site was also determined by measurement with the Sigma Plot program applied to the stained section slides of the various wound areas and the normal untreated skin (control) surrounding the peels. At magnifications of 100× to 320×, the microphotographs of the color slides provided a powerful tool for such quantification of the extent of hyperkeratosis evident in each peel.
Treatment of the section slides with selective stains produced identifiable evidence of the presence of both leukocyte and fibroblast cells in the wound areas. This was also quantified by the Sigma Plot program.
The above described animal model and protocols were employed in the testing of approximately 20 of the peptides listed in Table 48 (and other peptides for comparison) as preferred FLAK peptides for wound healing.

A further data set concerns WI38. Conditions: MTT, 24 hours with peptide; normal fibroblast line.
[11] abbreviates: pH 7, Table 26, valine substitution, read-out: Hemolysis RBC LD50.
Where [12] appears, read: WI-38 LD50, Table 26, valine substitution.

The values that follow come from US20050209157A1, “Short bioactive peptides and methods for their use” (priority 2001, published 2005).

Like-named read-outs stand apart in the source and are kept apart here. No end group written: not given here.

On to KWKLFKKALKKLKKALKKAL-NH2 [compound 104], for which the “Anti-cancer (preferred peptide)” value in the data set on cancer cell lines is reported as “X (Preferred anticancer peptides can be selected as having LD50 values of less than or equal to about 25 μg/ml)”.

As to FAKKLAKLALKLAKL-NH2 [compound 44], the “Anti-cancer (preferred peptide)” value in the data set with cancer cell lines is recorded as “X (Preferred anticancer peptides can be selected as having LD50 values of less than or equal to about 25 μg/ml)”. The “MBC E. coli A.25922” value in [1] turned out to be 10 µg/mL. The “MBC P. aerug A.27853” value in data set [2] is 55 µg/mL. Moreover, in data set [3], the “MBC S. aur A.25923” value is 30 µg/mL. Also, the “MFC Candida A.10231” value in [4] is greater than 50 µg/mL.

One may read the CC50 as the concentration that lowers cell viability or growth by half. Take FAKFLAKFLKKAL-NH2 [compound 111]: in the data set on cancer cell lines, the “Anti-cancer (preferred peptide)” value was “X (Preferred anticancer peptides can be selected as having LD50 values of less than or equal to about 25 μg/ml)”. For the same molecule, the HC50 at 1 h in the data set “in vitro [5]” (setting [11]) amounted to 5 µg/mL. In “in vitro [6]” (setting [12]), this molecule had a CC50 at 24 h of 25 µg/mL. In [1], the “MBC E. coli A.25922” value worked out at 30 µg/mL. Also, the “MBC S. aur A.25923” value in data set [3] turned out to be 40 µg/mL. Further, the “MFC Candida A.10231” value in [4] is “INACT”.

As to VAKLLAKALKKLL-NH2 [compound 506], the “Anti-cancer (preferred peptide)” value in the data set with cancer cell lines was “X (Preferred anticancer peptides can be selected as having LD50 values of less than or equal to about 25 μg/ml)”. Moreover, in “in vitro [5]” (setting [11]), the HC50 at 1 h was determined as 120 µg/mL. The midpoint of cytotoxicity in the data set “in vitro [6]” (setting [12]), the CC50 at 24 h, lay at 75 µg/mL.

With FAKKLAKLAKKLLAL-NH2 [compound 38], the “Anti-cancer (preferred peptide)” value with cancer cell lines was “X (Preferred anticancer peptides can be selected as having LD50 values of less than or equal to about 25 μg/ml)”. Besides, the HC50 at 1 h in “in vitro [5]” (setting [11]) was found to be 350 µg/mL. This molecule showed a cytotoxic concentration (CC50) at 24 h in the data set “in vitro [6]” (setting [12]) of 100 µg/mL. Also, in data set [1], the “MBC E. coli A.25922” value amounted to 15 µg/mL. Besides, the “MBC P. aerug A.27853” value in [2] was 30 µg/mL. The “MBC S. aur A.25923” value in data set [3] stood at 15 µg/mL.

For `CC[C@H](C)[C@H](N)C(=O)N[C@@H](CC(C)C)C(=O)N1CCC[C@H]1C(=O)N[C@@H](Cc1c[nH]c2ccccc12)C(=O)N[C@@H](CCCCN)C(=O)N[C@@H](Cc1c[nH]c2ccccc12)C(=O)N1CCC[C@H]1C(=O)N[C@@H](Cc1c[nH]c2ccccc12)C(=O)N[C@@H](Cc1c[nH]c2ccccc12)C(=O)N1CCC[C@H]1C(=O)N[C@@H](Cc1c[nH]c2ccccc12)C(=O)N[C@@H](CCCNC(=N)N)C(=O)N[C@@H](CCCNC(=N)N)C(=O)O` [compound 91], the “Anti-cancer (preferred peptide)” value in the data set on cancer cell lines is given as “X (Preferred anticancer peptides can be selected as having LD50 values of less than or equal to about 25 μg/ml)”.

With “FAKLLAKALKKAL-NH2 [P102, FAKLLAKALKKAL-NH2]”, in data set [7], the “paerug9027 (MIC)” value was found to be 10 µg/mL. Besides, the “staph6538 (MIC)” value in data set [8] is 5 µg/mL. Also, the “yeast (MIC or MFC)” value in data set [9] is 50 µg/mL. Besides, in the data set on BMKC, the “LD50 BMKC” value worked out at 60 µg/mL. Besides, in the data set with H1299, the “H1299 LD50” value came to 27 µg/mL. Further, in the data set on HeLaS3, the “HeLaS3 LD50” value was determined as 43 µg/mL. Also, the “LD50 MCF7” value in the data set with MCF7 was found to be 60 µg/mL. The “PC3 LD50” value in the data set on PC3 was found to be 66 µg/mL. Moreover, the “LD50 SW480” value in the data set on SW480 amounted to 57 µg/mL. Further, the HC50 at 1 h in the data set “in vitro [5]” (pH 7, hemolytic assay, concentration at 50% hemolysis, 1 hour at 37° C., read-out: LD50) came out at 500 µg/mL. Also, in the data set with P. aeruginosa H374 (MIC of chloramphenicol with peptide at ¼ MIC), the “MIC Cm-comb.” value was 16 µg/mL. Besides, in the data set on P. aeruginosa H374 (MIC of nalidixic acid with peptide at ¼ MIC), the “MIC Nal-comb.” value stood at 5000 µg/mL. In addition, the “FIC Index” value in the data set on P. aeruginosa H374 (chloramphenicol + peptide at ¼ MIC) is on record as 1.25. In addition, the “FIC Index” value in the data set with P. aeruginosa H374 (nalidixic acid + peptide at ¼ MIC, FIC=0.25+MIC comb/MIC alone) was determined as 1.25. Besides, in the data set with P. aeruginosa H774, the “FIC Index” value is recorded as 1.25. For the same molecule, the “MIC Nal-comb.” value in the data set with P. aeruginosa turned out to be 624 µg/mL. In [10], the Epidermal thickening is given as 50 % of control (TCA only), the “Fibroblast cells in test area” value is 220 % of normal skin, the Inflammatory response area is listed as 27 % of healed scar and the “Leukocyte cells in test area” value was 370 % of normal skin. Also, in data set [10] (26 days), the Wound closure is given as 96.7 % of initial wound. The “WI38 LD50” value with WI38 turned out to be 73 µg/mL. The molecule also gave a CC50 at 24 h in “in vitro [6]” (LD50 WI38, WI38 normal lung fibroblast line, MTT, 24 hours with peptide) of 73 µg/mL.

As to “KWKLFKKKTKLFKKFAKKLAKKL-OH [compound 81]”, the “Anti-cancer (preferred peptide)” value with cancer cell lines is given as “X (Preferred anticancer peptides can be selected as having LD50 values of less than or equal to about 25 μg/ml)”.

Take VAKALKALLKALKAL-NH2 [compound 501]: the “Anti-cancer (preferred peptide)” value with cancer cell lines is given as “X (Preferred anticancer peptides can be selected as having LD50 values of less than or equal to about 25 μg/ml)”. For the same molecule, the HC50 at 1 h in the data set “in vitro [5]” (setting [11]) is 15 µg/mL. Also, the CC50 at 24 h in the data set “in vitro [6]” (setting [12]) came to 26 µg/mL.
